Data as given in US20240373844A1, “PYROGLUTAMIC ACID AS AN HERBICIDE SAFENER AND METHODS OF USE THEREOF” (Verdesian Life Sciences U.S., LLC, priority 2021, published 2024).

Test system: corn (Zea mays) plants
Assay: Corn plants treated with glyphosate with and without PGA soil drench: dry biomass and leaf area (Experiment 1)
Assay type: in vivo
Conditions: 7 days after planting
Method: Corn seeds were sown in standard 10 cm diameter pots in peat-based media (Fafard #2/Sunshine Mix #8 soilless media: 75% Canadian sphagnum peat moss, 20% perlite, 5% vermiculite, trace: dolomitic limestone, wetting agent, silicon). Plants were grown under the following environmental conditions: • Temperature: 30° C. day/23° C. • Relative humidity: 60-70% • Photoperiod: 16 hours light/8 hours dark • Light intensity: 800-1000 μMols/m^2/s Treatments were administered 5 days after planting. In experiment 1, glyphosate was applied at 1%, 10%, and 100% of label rate, with and without PGA (0.137 g/L), as outlined in the table below. In Experiment 2, Bayer All-in-One® herbicide was applied at 10% and 100% of the label rate, with and without PGA (0.137 g/L). In both treatments, control plants received water. In both experiments, herbicide was applied as a 0.5 mL droplet by pipet on the 1st fully expanded leaf; PGA was applied as a 50 mL soil drench. Plants were grown in a completely randomized design for an additional 2 days to allow the treatments to take effect. At 7 days after planting, plants were photographed, and destructively harvested for leaf area and dry biomass.

Row | Compound | Avg(DryWt) (1% Label Rate Glyphosate, 0.0 g/L PGA) | Avg(DryWt) (10% Label Rate Glyphosate, 0.0 g/L PGA) | Avg(DryWt) (100% Label Rate Glyphosate, 0.0 g/L PGA) | Avg(DryWt) (0.137 g/L PGA drench with 1% Label Rate Glyphosate) | Avg(DryWt) (0.137 g/L PGA drench with 10% Label Rate Glyphosate) | Avg(DryWt) (0.137 g/L PGA drench, 0 Glyphosate)
1 | O=C(O)CNCP(=O)(O)O [Glyphosate, glyphosate] | 0.12 g | 0.06 g | 0.05 g | – | – | –
2 | O=C1CC[C@@H](C(=O)O)N1 [PGA, pyroglutamic acid] | – | – | – | 0.10 g | 0.10 g | 0.15 g
